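A five-concentration, 48-hour dose response in 96-well plates underlies each endpoint, interpolated linearly between surrounding concentrations. Definition used: TGI = concentration required for complete inhibition of growth.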

Among the test systems are NCI-H226 lung; MDA-MB-435; HL-60(TB) leukemia; HOP-62 NSCLC; NCI/ADR-RES ovarian; PC-3 prostate; SN12C renal; 786-0 renal; OVCAR-5 ovarian; UACC-62 melanoma; HCC-2998 colon; TK-10 renal.
Common to all, as to test: NCI-60 cell line screen, 48 h

Take `O=S1(=O)CCN(Cc2ccccc2)/C1=N\S(=O)(=O)c1ccc(Cl)cc1`: the TGI is 34.4 µM in the experiment with NCI-H226 lung; 36.2 µM with MDA-MB-435; 65.9 µM in the experiment with HL-60(TB) leukemia; above 100 µM in the experiment with HOP-62 NSCLC; 35.8 µM in the experiment on NCI/ADR-RES ovarian; 36.7 µM with PC-3 prostate. In addition, the TGI worked out at 33.3 µM with SN12C renal; 34.5 µM in the experiment with 786-0 renal; 33.4 µM with OVCAR-5 ovarian; 32 µM with UACC-62 melanoma; 34.5 µM in the experiment with HCC-2998 colon; 31 µM in the experiment on TK-10 renal.

Turning to `N=C1C(=N)c2ccccc2-c2ccccc21`, the TGI was found to be 3.57 µM with NCI-H226 lung; 0.4 µM in the experiment with MDA-MB-435; 0.658 µM in the experiment with HL-60(TB) leukemia; 3.04 µM in the experiment on HOP-62 NSCLC; 5 µM with NCI/ADR-RES ovarian; 2.88 µM in the experiment on PC-3 prostate. The TGI came out at 2.49 µM in the experiment on SN12C renal; 4.46 µM in the experiment with 786-0 renal; 3.43 µM in the experiment with OVCAR-5 ovarian; 2.78 µM in the experiment on UACC-62 melanoma; 3.47 µM in the experiment on HCC-2998 colon; 3.01 µM with TK-10 renal.

As to `C/C=C(/C)C(=O)O[C@H]1C(C)=C[C@]23C(=O)[C@@H](C=C(COC(C)=O)[C@@H](O)[C@]12O)[C@H]1[C@@H](C[C@H]3C)[C@@]1(C)OC(=O)/C(C)=C\C`, the TGI in the experiment with NCI-H226 lung came to 7.52 µM; with MDA-MB-435, 6.6 µM; with HL-60(TB) leukemia, 5.67 µM; in the experiment on HOP-62 NSCLC, 5.25 µM; in the experiment with NCI/ADR-RES ovarian it was 6.82 µM; in the experiment on PC-3 prostate it was 4.75 µM. Also, the TGI stood at 5.34 µM in the experiment with SN12C renal; 8.93 µM with 786-0 renal; 6.48 µM in the experiment with OVCAR-5 ovarian; 5.69 µM with UACC-62 melanoma; 5.59 µM in the experiment with HCC-2998 colon; 7.69 µM in the experiment on TK-10 renal.

Consider `C[Si](C)(C)OC1c2[nH]c3ccccc3c2CN2C(=O)CCC12` (configuration not stated), for which the TGI in the experiment on NCI-H226 lung, in the experiment with MDA-MB-435, with HL-60(TB) leukemia, with HOP-62 NSCLC, in the experiment on NCI/ADR-RES ovarian and in the experiment on PC-3 prostate was above 100 µM in each case. For the same compound, the TGI in the experiment with SN12C renal, in the experiment with 786-0 renal, in the experiment with OVCAR-5 ovarian, with UACC-62 melanoma, with HCC-2998 colon and with TK-10 renal was above 100 µM in each case.

`O=C1N=C(c2ccccc2)O/C1=C\c1ccccc1`: the TGI with NCI-H226 lung, with MDA-MB-435, with HL-60(TB) leukemia, in the experiment with HOP-62 NSCLC, with NCI/ADR-RES ovarian and in the experiment with PC-3 prostate was above 100 µM each time. For the same compound, the TGI in the experiment on SN12C renal, in the experiment on 786-0 renal, in the experiment on OVCAR-5 ovarian, with UACC-62 melanoma, with HCC-2998 colon and with TK-10 renal was above 100 µM each time.

`CC(=O)CCC[C@@H](C)[C@@H]1O[C@H]([C@@]2(C)CCC(=O)O2)C[C@H]2C(CSc3ccccc3)C(=O)O[C@@H]12` (some centres not stated): the TGI is 37.5 µM in the experiment on NCI-H226 lung; 45.6 µM with MDA-MB-435; 12.8 µM in the experiment with HL-60(TB) leukemia; above 100 µM in the experiment on HOP-62 NSCLC; 43.7 µM in the experiment with NCI/ADR-RES ovarian; 47.6 µM in the experiment with PC-3 prostate. Further, the TGI with SN12C renal was 34.2 µM; in the experiment on 786-0 renal, 42.2 µM; with OVCAR-5 ovarian it was 32.4 µM; in the experiment with UACC-62 melanoma it was 28.5 µM; in the experiment on HCC-2998 colon, 29.2 µM; with TK-10 renal it was 25.6 µM.

Turning to `CC1(C)C(=O)N=C(N)N1C(=O)OCc1ccccc1`, the TGI with NCI-H226 lung, in the experiment with MDA-MB-435, in the experiment on HL-60(TB) leukemia, with HOP-62 NSCLC, in the experiment on NCI/ADR-RES ovarian and in the experiment on PC-3 prostate was above 100 µM each time. The TGI with SN12C renal, in the experiment with 786-0 renal, in the experiment with OVCAR-5 ovarian, in the experiment on UACC-62 melanoma, in the experiment with HCC-2998 colon and in the experiment with TK-10 renal was above 100 µM each time.

For the compound `CCOC(=O)CCC(NC(=O)c1ccc(Nc2nc3cc(C(F)(F)F)ccc3nc2-c2ccccc2)cc1)C(=O)OCC` (configuration not stated), the TGI with NCI-H226 lung, in the experiment with MDA-MB-435, in the experiment on HL-60(TB) leukemia, in the experiment on HOP-62 NSCLC, in the experiment on NCI/ADR-RES ovarian and with PC-3 prostate was above 100 µM each time. Besides, the TGI in the experiment with SN12C renal, with 786-0 renal, in the experiment on OVCAR-5 ovarian, in the experiment on UACC-62 melanoma, in the experiment on HCC-2998 colon and in the experiment on TK-10 renal was above 100 µM in each case.

For `CC1C[C@]2(C)C(=S)Nc3ccccc3[C@@H]2Nc2ccccc21` (some centres not stated), the TGI turned out to be 36.6 µM with NCI-H226 lung; 31.2 µM with MDA-MB-435; 77 µM in the experiment on HL-60(TB) leukemia; 31.8 µM with HOP-62 NSCLC; 36.6 µM in the experiment on NCI/ADR-RES ovarian; 35.7 µM in the experiment on PC-3 prostate. Further, the TGI is 37.5 µM in the experiment with SN12C renal; 34.1 µM in the experiment on 786-0 renal; 43.5 µM with OVCAR-5 ovarian; 34.4 µM in the experiment with UACC-62 melanoma; 40.6 µM in the experiment on HCC-2998 colon; 39.5 µM with TK-10 renal.

For the compound `C=C1C(=O)C23CC1C[C@H](OC(C)=O)C2C1(C)C(OC(C)=O)C[C@H](O)C(C)(C)[C@H]1C(O)[C@@H]3OC(C)=O` (some centres not stated), the TGI in the experiment with NCI-H226 lung was 45 µM; in the experiment on MDA-MB-435, 20.6 µM; in the experiment on HL-60(TB) leukemia it was 6.11 µM; with HOP-62 NSCLC, 33.8 µM; in the experiment on NCI/ADR-RES ovarian, above 100 µM; with PC-3 prostate, 26.5 µM. The TGI was 20.7 µM in the experiment with SN12C renal; 20.7 µM with 786-0 renal; 28.8 µM in the experiment on OVCAR-5 ovarian; 26.5 µM in the experiment with UACC-62 melanoma; 36.9 µM in the experiment with HCC-2998 colon; 17 µM with TK-10 renal.

As to `COC(=O)[C@H](Cc1ccccc1)NC(=O)N1CCN(C(=O)N[C@@H](Cc2ccccc2)C(=O)OC)CCN(C(=O)N[C@@H](Cc2ccccc2)C(=O)OC)CC1`, the TGI with NCI-H226 lung, in the experiment on MDA-MB-435, in the experiment with HL-60(TB) leukemia, in the experiment with HOP-62 NSCLC, with NCI/ADR-RES ovarian and in the experiment on PC-3 prostate was above 100 µM throughout. The TGI in the experiment with SN12C renal, in the experiment on 786-0 renal, in the experiment on OVCAR-5 ovarian, in the experiment on UACC-62 melanoma, in the experiment on HCC-2998 colon and with TK-10 renal was above 100 µM throughout.

Source of the values: PubChem BioAssay (NCI).
